Experimental data taken from US11618743B2, “Herbicidal compounds” (SYNGENTA PARTICIPATIONS AG, priority 2017, dated 2023).

Assays:
Assay in all cases: Post-emergence efficacy, Method C
Type in all cases: in vivo
Settings in all cases: Application Rate 400 g/Ha, evaluated at 21 days
[1] = test system: Echinochloa crus-galli (ECHCG)
Experimental: (§1) An “instant formulation”, known as the IF50, containing 50 g/L of the “technical” (i.e. unformulated) active ingredient was prepared by dissolving the active ingredient in a mixture of organic solvents and emulsifier, details of which are provided in the table. This IF50 was then mixed with a small, variable amount of acetone to aid dissolution, before addition of a 1% v/v aqueous solution of the adjuvant Empicol ESC70 3EO (Sodium lauryl ether sulphate) and 1% v/v Ammonium sulphate, as the aqueous diluent, to form an aqueous spray solution which contains a predetermined concentration of the active ingredient (which varies depending on the application rate of the active ingredient to the plants).
(§2) Composition of the mixture of organic solvents and emulsifier used as a base for the instant formulation.
(§3) This aqueous spray solution was then sprayed onto the plants after about 21 days' cultivation. The plants were grown from seeds sown in standard soil, placed in a glasshouse under controlled conditions (at 24/18° C., day/night; 14 hours light; 65% humidity). After spray application the plants were then grown on in a glasshouse under the same conditions and watered twice daily. The test was evaluated at 21 days (100=total damage to plant; 0=no damage to plant).
(§4) Ipomoea hederacea (IPOHE), Amaranthus palmeri (AMAPA), Lolium perenne (LOLPE), Eleusine indica (ELEIN), Echinochloa crus-galli (ECHCG), Conyza canadensis (ERICA)

[2] = test system: Amaranthus palmeri (AMAPA)
Experimental: as §1, §2, §3, §4

[3] = test system: Conyza canadensis (ERICA)
Experimental: as §1, §2, §3, §4

[4] = test system: Ipomoea hederacea (IPOHE)
Experimental: as §1, §2, §3, §4

Lolium perenne (LOLPE) = test system: Lolium perenne (LOLPE)
Experimental: as §1, §2, §3, §4

| Structure (SMILES) | Control of weed species after post-emergence application, ECHCG (100=total damage to plant; 0=no damage to plant) [1] | Control of weed species after post-emergence application, AMAPA (100=total damage to plant; 0=no damage to plant) [2] | Control of weed species after post-emergence application, ERICA (100=total damage to plant; 0=no damage to plant) [3] | Control of weed species after post-emergence application, IPOHE (100=total damage to plant; 0=no damage to plant) [4] | Control of weed species after post-emergence application, LOLPE (100=total damage to plant; 0=no damage to plant) (Lolium perenne (LOLPE)) |
| --- | --- | --- | --- | --- | --- |
| O=S(=O)([O-])C[n+]1ccc(-c2ncccn2)cn1 [Compound A3, (4-pyrimidin-2-ylpyridazin-1-ium-1-yl)methanesulfonate] | 13 |  |  |  |  |
| Cl.O=S(=O)([O-])CC[n+]1ccc(-c2ccncc2)cn1 [Compound A27] | 43 | 77 | 65 | 90 | 68 |
